From US6355799B1, “Substituted benzene compounds, process for their preparation, and herbicidal and defoliant compositions containing them” (ISK Americas Incorporated, priority 1997, dated 2002)

Assays:
Type in all cases: in vivo
[1] = tested on: redroot pigweed (Amaranthus retroflexus, AMARE); assay: Pre-emerge test, greenhouse herbicide activity screening
Outline: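 Sandy loam pots; pre-emerge: sown 1 d pre-spray, surface-watered after, then bottom-watered. Post-emerge: sown 8–21 d before, 2–3 leaf stage, + 0.25% v/v NIS, bottom-watered. Acetone, 187 l/ha track spray, 15–1000 g ai/ha. 0–100 injury score, day 14.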

[2] = tested on: upland rice (Oryza sp., var. Tebonnet, RICE); assay: Pre-emerge test, crop safety
Outline: (§1)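 Rating: 0–100 visual injury, 14 DAA. Application: acetone, 187 l/ha, 15–1000 g ai/ha, flat-fan track sprayer with nozzle 40–45 cm above soil or canopy. Post-emerge runs used 0.25% v/v surfactant on 2–3 leaf plants.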

[3] = tested on: field corn (Zea mays L., var. Dekalb 535, CORN); assay: Pre-emerge test, crop safety
Outline: as §1

[4] = tested on: large crabgrass (Digitaria sanguinalis, DIGSA); assay: Pre-emerge test, greenhouse herbicide activity screening
Outline: (§2)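 Compounds in acetone were track-sprayed at 15–1000 g ai/ha: pre-emergence onto soil sown the previous day, then top-watered to incorporate and later bottom-watered; post-emergence onto 2–3 leaf plants with 0.25% v/v surfactant, bottom-watered only. Ratings on a 0–100 phytotoxicity scale were taken at day 14.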

[5] = tested on: green foxtail (Setaria viridis, SETVI); assay: as above
Outline: as §2

[6] = tested on: lambsquarters (Chenopodium album, CHEAL); assay: as above
Outline: as §2

[7] = tested on: ivyleaf morningglory (Ipomoea hederacea, IPOHE); assay: as above
Outline: as §2

[8] = tested on: sicklepod (Cassia obtusifolia, CASOB); assay: as above
Outline: as §2

[9] = tested on: velvetleaf (Abutilon theophrasti, ABUTH); assay: as above
Outline: as §2

[10] = tested on: barnyardgrass (Echinochloa crus-galli, ECHCG); assay: as above
Outline: as §2

[11] = tested on: johnsongrass (Sorghum halepense, SORHA); assay: as above
Outline: as §2

[12] = tested on: upland rice (Oryza sp., var. Tebonnet, RICE); assay: Post-emerge test, crop safety; conditions: post-emerge, crop damage rating 0-100 at 14 days after application
Outline: as §1

[13] = tested on: field corn (Zea mays L., var. Dekalb 535, CORN); assay: Post-emerge test, crop safety; conditions: post-emerge, crop damage rating 0-100 at 14 days after application
Outline: as §1

[14] = tested on: large crabgrass (Digitaria sanguinalis, DIGSA); assay: Post-emerge test, greenhouse herbicide activity screening; conditions: post-emerge, phytotoxicity rating 0-100 at 14 days after application
Outline: (§3)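 Herbicidal damage is scored 0 (none) to 100 (complete plant death) two weeks after a simulated field spray. Rates span 15–1000 g ai/ha, delivered in acetone at 187 l/ha. For post-emergence treatments, plants have 2–3 leaves and the spray carries 0.25% v/v non-ionic surfactant.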

[15] = tested on: green foxtail (Setaria viridis, SETVI); assay: as above; conditions: post-emerge, phytotoxicity rating 0-100 at 14 days after application
Outline: as §3

[16] = tested on: lambsquarters (Chenopodium album, CHEAL); assay: as above; conditions: post-emerge, phytotoxicity rating 0-100 at 14 days after application
Outline: as §3

[17] = tested on: ivyleaf morningglory (Ipomoea hederacea, IPOHE); assay: as above; conditions: post-emerge, phytotoxicity rating 0-100 at 14 days after application
Outline: as §3

[18] = tested on: sicklepod (Cassia obtusifolia, CASOB); assay: as above; conditions: post-emerge, phytotoxicity rating 0-100 at 14 days after application
Outline: as §3

[19] = tested on: velvetleaf (Abutilon theophrasti, ABUTH); assay: as above; conditions: post-emerge, phytotoxicity rating 0-100 at 14 days after application
Outline: as §3

[20] = tested on: barnyardgrass (Echinochloa crus-galli, ECHCG); assay: as above; conditions: post-emerge, phytotoxicity rating 0-100 at 14 days after application
Outline: as §3

[21] = tested on: redroot pigweed (Amaranthus retroflexus, AMARE); assay: as above; conditions: post-emerge, phytotoxicity rating 0-100 at 14 days after application
Outline: as §3

[22] = tested on: johnsongrass (Sorghum halepense, SORHA); assay: as above; conditions: post-emerge, phytotoxicity rating 0-100 at 14 days after application
Outline: as §3

[23] = 250 g ai/ha, rating scale 0-100, 14 days after application
[24] = pre-emerge, rate 63 g ai/ha, phytotoxicity rating 0-100 at 14 days after application
[25] = crop damage, pre-emerge, rate 63 g ai/ha, phytotoxicity rating 0-100 at 14 days after application

Nc1c(O)c(Cl)cc(F)c1N1C(=O)C2CCCCN2C1=S (single isomer, unassigned) [12-2]
Pre-emerge herbicidal activity, phytotoxicity rating AMARE [1, 23]: 100
Pre-emerge Herbicidal Activity AMARE [1, 24]: 100
Pre-emerge phytotoxicity rating, crop damage RICE [2, 23]: 99
Pre-emerge Herbicidal Activity RICE [2, 25]: 50
Pre-emerge phytotoxicity rating, crop damage CORN [3, 23]: 99
Pre-emerge Herbicidal Activity CORN [3, 25]: 40
Pre-emerge herbicidal activity, phytotoxicity rating DIGSA [4, 23]: 100
Pre-emerge Herbicidal Activity DIGSA [4, 24]: 95
Pre-emerge herbicidal activity, phytotoxicity rating SETVI [5, 23]: 100
Pre-emerge Herbicidal Activity SETVI [5, 24]: 95
Pre-emerge herbicidal activity, phytotoxicity rating CHEAL [6, 23]: 100
Pre-emerge Herbicidal Activity CHEAL [6, 24]: 100
Pre-emerge herbicidal activity, phytotoxicity rating IPOHE [7, 23]: 100
Pre-emerge Herbicidal Activity IPOHE [7, 24]: 95
Pre-emerge herbicidal activity, phytotoxicity rating CASOB [8, 23]: 100
Pre-emerge Herbicidal Activity CASOB [8, 24]: 99
Pre-emerge herbicidal activity, phytotoxicity rating ABUTH [9, 23]: 100
Pre-emerge Herbicidal Activity ABUTH [9, 24]: 100
Pre-emerge herbicidal activity, phytotoxicity rating ECHCG [10, 23]: 99
Pre-emerge Herbicidal Activity ECHCG [10, 24]: 40
Pre-emerge herbicidal activity, phytotoxicity rating SORHA [11, 23]: 100
Pre-emerge Herbicidal Activity SORHA [11, 24]: 90
Post-emerge Herbicidal Activity RICE ([12]; 63 g ai/ha): 20
Post-emerge Herbicidal Activity RICE ([12]; 250 g ai/ha): 80
Post-emerge Herbicidal Activity CORN ([13]; 63 g ai/ha): 10
Post-emerge Herbicidal Activity CORN ([13]; 250 g ai/ha): 100
Post-emerge Herbicidal Activity DIGSA ([14]; 63 g ai/ha): 0
Post-emerge Herbicidal Activity DIGSA ([14]; 250 g ai/ha): 70
Post-emerge Herbicidal Activity SETVI ([15]; 63 g ai/ha): 0
Post-emerge Herbicidal Activity SETVI ([15]; 250 g ai/ha): 50
Post-emerge Herbicidal Activity CHEAL ([16]; 63 g ai/ha): 100
Post-emerge Herbicidal Activity CHEAL ([16]; 250 g ai/ha): 100
Post-emerge Herbicidal Activity IPOHE ([17]; 63 g ai/ha): 90
Post-emerge Herbicidal Activity IPOHE ([17]; 250 g ai/ha): 100
Post-emerge Herbicidal Activity CASOB ([18]; 63 g ai/ha): 50
Post-emerge Herbicidal Activity CASOB ([18]; 250 g ai/ha): 95
Post-emerge Herbicidal Activity ABUTH ([19]; 63 g ai/ha): 100
Post-emerge Herbicidal Activity ABUTH ([19]; 250 g ai/ha): 100
Post-emerge Herbicidal Activity ECHCG ([20]; 63 g ai/ha): 30
Post-emerge Herbicidal Activity ECHCG ([20]; 250 g ai/ha): 80
Post-emerge Herbicidal Activity AMARE ([21]; 63 g ai/ha): 30
Post-emerge Herbicidal Activity AMARE ([21]; 250 g ai/ha): 100
Post-emerge Herbicidal Activity SORHA ([22]; 63 g ai/ha): 10
Post-emerge Herbicidal Activity SORHA ([22]; 250 g ai/ha): 90
